Calls of active or inactive are those of the source. No cut-off for these calls is given here.
Columns and labels:
Type in all cases: functional, cell-based
MCF7 [1] = assay: Cytotoxicity against human MCF7 cells assessed as morphological changes after 48 hrs by microscopic analysis
MCF7 [2] = assay: Antiproliferative activity against human MCF7 cells after 48 hrs by Alamar blue assay; settings: MCF7, 48 h
BT-474 = assay: Antiproliferative activity against human BT474 cells after 48 hrs by Alamar blue assay; settings: BT-474, 48 h

Row | SMILES | Activity (MCF7 [1]) | IC50 (MCF7 [2]) [µM] | IC50 (BT-474) [µM]
1 | C=C[C@@]1(C)CC(=O)[C@]2(O)[C@@]3(C)[C@@H](OCc4cc(-c5ccc(OCc6ccccc6)cc5)no4)CCC(C)(C)[C@@H]3[C@H](O)[C@H](OC(C)=O)[C@@]2(C)O1 | Active | 0.5 | 0.5
2 | CC(=O)O[C@H]1[C@H]2C(C)(C)CC[C@H](OCc3cc(-c4ccc(OCc5ccccc5)cc4)no3)[C@]2(C)[C@@]2(O)C(=O)C[C@](C)(C3CC(c4ccc(OCc5ccccc5)cc4)=NO3)O[C@]2(C)[C@H]1O (stereo partly specified) | – | 3.3 | 1.3
3 | CC(=O)O[C@H]1[C@@H](O)[C@H]2C(C)(C)CC[C@H](OCc3cc(-c4ccc(OCc5ccccc5)cc4)no3)[C@]2(C)[C@@]2(O)C(=O)C[C@](C)(C3CC(c4ccc(OCc5ccccc5)cc4)=NO3)O[C@]12C (stereo partly specified) | – | 52.6 | 79.6
4 | CC[C@@]1(C)CC(=O)[C@]2(O)[C@@]3(C)[C@@H](OCc4cc(-c5ccc(OC)c(OC)c5)no4)CCC(C)(C)[C@@H]3[C@H](O)[C@H](OC(C)=O)[C@@]2(C)O1 | – | 9.6 | > 100
5 | C=C[C@@]1(C)CC(=O)[C@]2(O)[C@@]3(C)[C@@H](OCc4cc(-c5ccc(OCc6ccccc6)cc5)no4)CCC(C)(C)[C@@H]3[C@H](OC(C)=O)[C@H](O)[C@@]2(C)O1 | – | 84.6 | > 100
6 | C=C[C@@]1(C)CC(=O)[C@]2(O)[C@@]3(C)[C@@H](OCc4cc(-c5ccc(C)cc5)no4)CCC(C)(C)[C@@H]3[C@H](OC(C)=O)[C@H](O)[C@@]2(C)O1 | – | 32 | > 100
7 | CC[C@@]1(C)CC(=O)[C@]2(O)[C@@]3(C)[C@@H](OCc4cc(-c5ccccc5)no4)CCC(C)(C)[C@@H]3[C@H](O)[C@H](OC(C)=O)[C@@]2(C)O1 | – | 2.6 | 9.1
8 | COc1ccc(C2=NOC([C@@]3(C)CC(=O)[C@]4(O)[C@@]5(C)[C@@H](OCc6cc(-c7ccc(OC)c(OC)c7)no6)CCC(C)(C)[C@@H]5[C@H](O)[C@H](OC(C)=O)[C@@]4(C)O3)C2)cc1OC (stereo partly specified) | – | 0.5 | > 100
9 | C=C[C@@]1(C)CC(=O)[C@]2(O)[C@@]3(C)[C@@H](OCc4cc(-c5ccc(Cl)cc5)no4)CCC(C)(C)[C@@H]3[C@H](O)[C@H](OC(C)=O)[C@@]2(C)O1 | – | 5.6 | > 100
10 | CC[C@@]1(C)CC(=O)[C@]2(O)[C@@]3(C)[C@@H](OCc4cc(-c5ccc(Cl)cc5)no4)CCC(C)(C)[C@@H]3[C@H](O)[C@H](OC(C)=O)[C@@]2(C)O1 | – | 1.6 | 7
11 | CC[C@@]1(C)CC(=O)[C@]2(O)[C@@]3(C)[C@@H](OCc4cc(-c5cc(OC)c(OC)c(OC)c5)no4)CCC(C)(C)[C@@H]3[C@H](O)[C@H](OC(C)=O)[C@@]2(C)O1 | – | 0.5 | 29.3
12 | C=C[C@@]1(C)CC(=O)[C@]2(O)[C@@]3(C)[C@@H](OCc4cc(-c5c(OC)cc(OC)cc5OC)no4)CCC(C)(C)[C@@H]3[C@H](O)[C@H](OC(C)=O)[C@@]2(C)O1 | – | 0.5 | > 100
13 | C=C[C@@]1(C)CC(=O)[C@]2(O)[C@@]3(C)[C@@H](OCc4cc(-c5ccc(OC)cc5)no4)CCC(C)(C)[C@@H]3[C@H](OC(C)=O)[C@H](O)[C@@]2(C)O1 | – | 57.3 | > 100
14 | C=C[C@@]1(C)CC(=O)[C@]2(O)[C@@]3(C)[C@@H](OCc4cc(-c5ccc(OC)c(OC)c5)no4)CCC(C)(C)[C@@H]3[C@H](O)[C@H](OC(C)=O)[C@@]2(C)O1 | – | 1.1 | > 100
15 | C=C[C@@]1(C)CC(=O)[C@]2(O)[C@@]3(C)[C@@H](O)CCC(C)(C)[C@@H]3[C@H](O)[C@H](OC(C)=O)[C@@]2(C)O1 [COLFORSIN] | Active | 63.3 | > 100
16 | C#CCO[C@H]1CCC(C)(C)[C@@H]2[C@H](OC(C)=O)[C@H](O)[C@@]3(C)O[C@@](C)(C=C)CC(=O)[C@]3(O)[C@@]12C | – | 30 | > 100
17 | C=C[C@@]1(C)CC(=O)[C@]2(O)[C@@]3(C)[C@@H](OCc4cc(-c5c(OC)cc(OC)cc5OC)no4)CCC(C)(C)[C@@H]3[C@H](OC(C)=O)[C@H](O)[C@@]2(C)O1 | – | 0.5 | > 100

Row | SMILES | Activity (MCF7 [1]) | IC50 (MCF7 [2]) [µM] | IC50 (BT-474) [µM]
18 | C=C[C@@]1(C)CC(=O)[C@]2(O)[C@@]3(C)[C@@H](OCc4cc(-c5ccc(OC)c(OC)c5)no4)CCC(C)(C)[C@@H]3[C@H](OC(C)=O)[C@H](O)[C@@]2(C)O1 | – | 12 | 28.3
19 | C=C[C@@]1(C)CC(=O)[C@]2(O)[C@@]3(C)[C@@H](OCc4cc(-c5ccc(C)cc5)no4)CCC(C)(C)[C@@H]3[C@H](O)[C@H](OC(C)=O)[C@@]2(C)O1 | – | 7 | 75
20 | CC(=O)O[C@H]1[C@H]2C(C)(C)CC[C@H](OCc3cc(-c4ccc(C)cc4)no3)[C@]2(C)[C@@]2(O)C(=O)C[C@](C)(C3CC(c4ccc(C)cc4)=NO3)O[C@]2(C)[C@H]1O (stereo partly specified) | – | 59 | > 100
21 | CC(=O)O[C@H]1[C@@H](O)[C@H]2C(C)(C)CC[C@H](OCc3cc(-c4ccccc4)no3)[C@]2(C)[C@@]2(O)C(=O)C[C@](C)(C3CC(c4ccccc4)=NO3)O[C@]12C (stereo partly specified) | – | 35.3 | > 100
22 | COc1ccc(C2=NOC([C@@]3(C)CC(=O)[C@]4(O)[C@@]5(C)[C@@H](OCc6cc(-c7ccc(OC)cc7)no6)CCC(C)(C)[C@@H]5[C@H](O)[C@H](OC(C)=O)[C@@]4(C)O3)C2)cc1 (stereo partly specified) | – | 3 | 4.3
23 | C=C[C@@]1(C)CC(=O)[C@]2(O)[C@@]3(C)[C@@H](OCc4cc(-c5ccccc5)no4)CCC(C)(C)[C@@H]3[C@H](O)[C@H](OC(C)=O)[C@@]2(C)O1 | Active | 0.5 | 5
24 | CC(=O)O[C@H]1[C@@H](O)[C@H]2C(C)(C)CC[C@H](OCc3cc(-c4ccc(C)cc4)no3)[C@]2(C)[C@@]2(O)C(=O)C[C@](C)(C3CC(c4ccc(C)cc4)=NO3)O[C@]12C (stereo partly specified) | – | 5.6 | > 100
25 | C#CCO[C@H]1CCC(C)(C)[C@@H]2[C@H](O)[C@H](OC(C)=O)[C@@]3(C)O[C@@](C)(CC)CC(=O)[C@]3(O)[C@@]12C | – | 10 | > 100
26 | CC[C@@]1(C)CC(=O)[C@]2(O)[C@@]3(C)[C@@H](OCc4cc(-c5ccc(OC)cc5)no4)CCC(C)(C)[C@@H]3[C@H](O)[C@H](OC(C)=O)[C@@]2(C)O1 | Active | 0.5 | 2.1
27 | C=C[C@@]1(C)CC(=O)[C@]2(O)[C@@]3(C)[C@@H](OCc4cc(-c5cc(OC)c(OC)c(OC)c5)no4)CCC(C)(C)[C@@H]3[C@H](O)[C@H](OC(C)=O)[C@@]2(C)O1 | – | 55.3 | > 100
28 | COc1ccc(C2=NOC([C@@]3(C)CC(=O)[C@]4(O)[C@@]5(C)[C@@H](OCc6cc(-c7ccc(OC)c(OC)c7)no6)CCC(C)(C)[C@@H]5[C@H](OC(C)=O)[C@H](O)[C@@]4(C)O3)C2)cc1OC (stereo partly specified) | – | 0.5 | > 100
29 | C=C[C@@]1(C)CC(=O)[C@]2(O)[C@@]3(C)[C@@H](OCc4cc(-c5ccc(OC)cc5)no4)CCC(C)(C)[C@@H]3[C@H](O)[C@H](OC(C)=O)[C@@]2(C)O1 | Active | 0.5 | 4
30 | C=C[C@@]1(C)CC(=O)[C@]2(O)[C@@]3(C)[C@@H](OCc4cc(-c5ccc(Cl)cc5)no4)CCC(C)(C)[C@@H]3[C@H](OC(C)=O)[C@H](O)[C@@]2(C)O1 | – | 4 | > 100
31 | C=C[C@@]1(C)CC(=O)[C@]2(O)[C@@]3(C)[C@@H](OCc4cc(-c5cc(OC)c(OC)c(OC)c5)no4)CCC(C)(C)[C@@H]3[C@H](OC(C)=O)[C@H](O)[C@@]2(C)O1 | – | 4.4 | > 100
32 | COc1ccc(C2=NOC([C@@]3(C)CC(=O)[C@]4(O)[C@@]5(C)[C@@H](OCc6cc(-c7ccc(OC)cc7)no6)CCC(C)(C)[C@@H]5[C@H](OC(C)=O)[C@H](O)[C@@]4(C)O3)C2)cc1 (stereo partly specified) | – | 79.3 | > 100
33 | C#CCO[C@H]1CCC(C)(C)[C@@H]2[C@H](O)[C@H](OC(C)=O)[C@@]3(C)O[C@@](C)(C=C)CC(=O)[C@]3(O)[C@@]12C | – | > 100 | > 100

Source: ChEMBL document CHEMBL4219035, “Synthesis of novel forskolin isoxazole derivatives with potent anti-cancer activity against breast cancer cell lines” (Bioorg Med Chem Lett, 2017)
